Source: patent US11109593B2, “Isoxazolin-5-one derivative and herbicide containing same as active ingredient” (HOKKO CHEMICAL INDUSTRY CO., LTD., priority 2017, dated 2021)

test system: broad leaf weeds (Lindernia pyxidaria and Monochoria vaginalis); experiment: Test Example 1: herbicidal effect test by treatment of rice paddy soil (immediately after seeding); type: in vivo; conditions: Lindernia pyxidaria, 120 g/10a active ingredient, dry weight vs untreated area, 14 days after treatment
Method in brief: (§1)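 Applied at 120 g a.i./10 ares as diluted emulsion dropped into flooded (~3 cm) paddy soil pots right after sowing seeds 0–1 cm deep; greenhouse, two replicates. At day 14, dry weight of treated versus untreated plants gives % herbicidal rate.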

Compound	Herbicidal rate (%) Lindernia pyxidaria
CCC(CC)Cn1oc(=O)c(Cc2ccccc2N(S(=O)(=O)C(F)(F)F)S(=O)(=O)C(F)(F)F)c1C [Compound 1-973]	100%
Cc1c(Cc2ccccc2NS(=O)(=O)C(F)(F)F)c(=O)on1CC(C)(C)C [Compound 1-106]	90%

same assay, conditions: Monochoria vaginalis, 120 g/10a active ingredient, dry weight vs untreated area, 14 days after treatment

Compound	Herbicidal rate (%) Monochoria vaginalis
CCC(CC)Cn1oc(=O)c(Cc2ccccc2N(S(=O)(=O)C(F)(F)F)S(=O)(=O)C(F)(F)F)c1C [Compound 1-973]	80%
Cc1c(Cc2ccccc2NS(=O)(=O)C(F)(F)F)c(=O)on1CC(C)(C)C [Compound 1-106]	90%

test system: Scirpus juncoides; experiment: as above; type: in vivo; conditions: 120 g/10a active ingredient, dry weight vs untreated area, 14 days after treatment
Method in brief: as §1

Compound	Herbicidal rate (%) Scirpus juncoides
CCC(CC)Cn1oc(=O)c(Cc2ccccc2N(S(=O)(=O)C(F)(F)F)S(=O)(=O)C(F)(F)F)c1C [Compound 1-973]	100%
Cc1c(Cc2ccccc2NS(=O)(=O)C(F)(F)F)c(=O)on1CC(C)(C)C [Compound 1-106]	90%

test system: Echinochloa crus-galli; experiment: as above; type: in vivo; conditions: 120 g/10a active ingredient, dry weight vs untreated area, 14 days after treatment
Method in brief: as §1

Compound	Herbicidal rate (%) Echinochloa crus-galli
CCC(CC)Cn1oc(=O)c(Cc2ccccc2N(S(=O)(=O)C(F)(F)F)S(=O)(=O)C(F)(F)F)c1C [Compound 1-973]	100%
Cc1c(Cc2ccccc2NS(=O)(=O)C(F)(F)F)c(=O)on1CC(C)(C)C [Compound 1-106]	90%

test system: southern crabgrass; experiment: Test Example 3: herbicidal effect test by treatment of dry field farming soil (one day after seeding); type: in vivo; conditions: 120 g/10a active ingredient, evaluated 14 days after treatment
Method in brief: (§2)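 Pre-emergence soil treatment: alluvial dry-field soil, 20 seeds per species mixed into top 1 cm, emulsion diluted in water sprayed one day after seeding at 100 L per 10 ares (120 g active ingredient per 10 ares). Duplicate pots; herbicidal rate (%) from dry weight vs untreated at 14 days.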

Compound	herbicidal rate, southern crabgrass
CCC(CC)Cn1oc(=O)c(Cc2ccccc2N(S(=O)(=O)C(F)(F)F)S(=O)(=O)C(F)(F)F)c1C [Compound 1-973]	100%
Cc1c(Cc2ccccc2NS(=O)(=O)C(F)(F)F)c(=O)on1CC(C)(C)C [Compound 1-106]	90%

test system: Amaranthus viridis; experiment: as above; type: in vivo; conditions: 120 g/10a active ingredient, evaluated 14 days after treatment
Method in brief: as §2

Compound	herbicidal rate, Amaranthus viridis
CCC(CC)Cn1oc(=O)c(Cc2ccccc2N(S(=O)(=O)C(F)(F)F)S(=O)(=O)C(F)(F)F)c1C [Compound 1-973]	90%
Cc1c(Cc2ccccc2NS(=O)(=O)C(F)(F)F)c(=O)on1CC(C)(C)C [Compound 1-106]	90%

test system: Chenopodium album; experiment: as above; type: in vivo; conditions: 120 g/10a active ingredient, evaluated 14 days after treatment
Method in brief: as §2

Compound	herbicidal rate, Chenopodium album
CCC(CC)Cn1oc(=O)c(Cc2ccccc2N(S(=O)(=O)C(F)(F)F)S(=O)(=O)C(F)(F)F)c1C [Compound 1-973]	90%
Cc1c(Cc2ccccc2NS(=O)(=O)C(F)(F)F)c(=O)on1CC(C)(C)C [Compound 1-106]	90%

test system: Echinochloa crus-galli; experiment: as above; type: in vivo; conditions: 120 g/10a active ingredient, evaluated 14 days after treatment
Method in brief: as §2

Compound	herbicidal rate, Echinochloa crus-galli
CCC(CC)Cn1oc(=O)c(Cc2ccccc2N(S(=O)(=O)C(F)(F)F)S(=O)(=O)C(F)(F)F)c1C [Compound 1-973]	100%
Cc1c(Cc2ccccc2NS(=O)(=O)C(F)(F)F)c(=O)on1CC(C)(C)C [Compound 1-106]	90%

test system: southern crabgrass; experiment: Test Example 4: herbicidal effect test by treatment of leave and stem in dry field farming (seven days after seeding); type: in vivo; conditions: 120 g/10a active ingredient; emulsion sprayed seven days after seeding; evaluated 14 days after treatment
Method in brief: (§3)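 Twenty seeds per species were mixed into the top 1 cm of alluvial soil in 36 cm^2 pots; emulsions were sprayed seven days after seeding at 100 L per 10 ares (120 g active ingredient per 10 ares). Herbicidal rate (%) = {1 − treated/untreated mean dry weight} × 100, 14 days after treatment, duplicate.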

Compound	herbicidal effect (herbicidal rate), southern crabgrass
CCC(CC)Cn1oc(=O)c(Cc2ccccc2N(S(=O)(=O)C(F)(F)F)S(=O)(=O)C(F)(F)F)c1C [Compound 1-973]	80%
Cc1c(Cc2ccccc2NS(=O)(=O)C(F)(F)F)c(=O)on1CC(C)(C)C [Compound 1-106]	90%

test system: Amaranthus viridis; experiment: as above; type: in vivo; conditions: 120 g/10a active ingredient; emulsion sprayed seven days after seeding; evaluated 14 days after treatment
Method in brief: as §3

Compound	herbicidal effect (herbicidal rate), Amaranthus viridis
CCC(CC)Cn1oc(=O)c(Cc2ccccc2N(S(=O)(=O)C(F)(F)F)S(=O)(=O)C(F)(F)F)c1C [Compound 1-973]	40%
Cc1c(Cc2ccccc2NS(=O)(=O)C(F)(F)F)c(=O)on1CC(C)(C)C [Compound 1-106]	40%

test system: Chenopodium album; experiment: as above; type: in vivo; conditions: 120 g/10a active ingredient; emulsion sprayed seven days after seeding; evaluated 14 days after treatment
Method in brief: as §3

Compound	herbicidal effect (herbicidal rate), Chenopodium album
CCC(CC)Cn1oc(=O)c(Cc2ccccc2N(S(=O)(=O)C(F)(F)F)S(=O)(=O)C(F)(F)F)c1C [Compound 1-973]	0%
Cc1c(Cc2ccccc2NS(=O)(=O)C(F)(F)F)c(=O)on1CC(C)(C)C [Compound 1-106]	40%

test system: Echinochloa crus-galli; experiment: as above; type: in vivo; conditions: 120 g/10a active ingredient; emulsion sprayed seven days after seeding; evaluated 14 days after treatment
Method in brief: as §3

Compound	herbicidal effect (herbicidal rate), Echinochloa crus-galli
CCC(CC)Cn1oc(=O)c(Cc2ccccc2N(S(=O)(=O)C(F)(F)F)S(=O)(=O)C(F)(F)F)c1C [Compound 1-973]	90%
Cc1c(Cc2ccccc2NS(=O)(=O)C(F)(F)F)c(=O)on1CC(C)(C)C [Compound 1-106]	90%

test system: broad leaf weeds (Lindernia pyxidaria and Monochoria vaginalis); experiment: Test Example 2: herbicidal effect test by treatment during growing period in paddy rice cultivation (seven days after seeding); type: in vivo; conditions: Lindernia pyxidaria, 120 g/10a active ingredient, assessed 14 days after treatment, dry weight vs untreated area
Method in brief: (§4)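 Paddy soil in Wagner pots with compound fertilizer, puddled; 30 seeds per species sown at 0–1 cm, flooded ~3 cm, greenhouse. Seven days after seeding, water-diluted emulsions were dropped into the water at 120 g active ingredient per 10 ares. Duplicate pots; herbicidal rate from dry weight versus untreated, 14 days after treatment.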

Compound	Herbicidal rate (%) Lindernia pyxidaria
CCC(CC)Cn1oc(=O)c(Cc2ccccc2N(S(=O)(=O)C(F)(F)F)S(=O)(=O)C(F)(F)F)c1C [Compound 1-973]	60%
Cc1c(Cc2ccccc2NS(=O)(=O)C(F)(F)F)c(=O)on1CC(C)(C)C [Compound 1-106]	90%

same assay, conditions: Monochoria vaginalis, 120 g/10a active ingredient, assessed 14 days after treatment, dry weight vs untreated area

Compound	Herbicidal rate (%) Monochoria vaginalis
CCC(CC)Cn1oc(=O)c(Cc2ccccc2N(S(=O)(=O)C(F)(F)F)S(=O)(=O)C(F)(F)F)c1C [Compound 1-973]	90%
Cc1c(Cc2ccccc2NS(=O)(=O)C(F)(F)F)c(=O)on1CC(C)(C)C [Compound 1-106]	90%

test system: Scirpus juncoides; experiment: as above; type: in vivo; conditions: 120 g/10a active ingredient, assessed 14 days after treatment, dry weight vs untreated area
Method in brief: as §4

Compound	Herbicidal rate (%) Scirpus juncoides
CCC(CC)Cn1oc(=O)c(Cc2ccccc2N(S(=O)(=O)C(F)(F)F)S(=O)(=O)C(F)(F)F)c1C [Compound 1-973]	90%
Cc1c(Cc2ccccc2NS(=O)(=O)C(F)(F)F)c(=O)on1CC(C)(C)C [Compound 1-106]	90%

test system: Echinochloa crus-galli; experiment: as above; type: in vivo; conditions: 120 g/10a active ingredient, assessed 14 days after treatment, dry weight vs untreated area
Method in brief: as §4

Compound	Herbicidal rate (%) Echinochloa crus-galli
CCC(CC)Cn1oc(=O)c(Cc2ccccc2N(S(=O)(=O)C(F)(F)F)S(=O)(=O)C(F)(F)F)c1C [Compound 1-973]	100%
Cc1c(Cc2ccccc2NS(=O)(=O)C(F)(F)F)c(=O)on1CC(C)(C)C [Compound 1-106]	90%
